A word on the inhibition: it is the share of the control response that was lost under treatment. Low values mean little suppression, high ones strong suppression.

Drawing on ChEMBL document CHEMBL1123684, “Synthesis and biological properties of 9-(trans-4-hydroxy-2-buten-1-yl)adenine and guanine: open-chain analogues of neplanocin A” (1987), this text covers Activity and inhibition for three compounds.

For test [1], the system named is L1210. As to the kind of experiment: Apparent inhibition of incorporation of labeled thymidine into DNA in murine leukemia L1210 cell;No inhibition. Particulars: Mus musculus. The format is functional, cell-based.
Test [2] deals with Vesicular stomatitis virus. As to the kind of experiment: Antiviral activity against vesicular stomatis virus (VSV); Inactive. It is filed as functional, organism-based.
The test system of a further test is Human alphaherpesvirus 1. As to the kind of experiment: Antiviral activity against herpes simplex virus-1 (HSV 1); Inactive. The format is functional, organism-based.
A further test relates to Human alphaherpesvirus 2. As to the kind of experiment: Antiviral activity against herpes simplex virus 2 (HSV 2); Inactive. It is filed as functional, organism-based.
The subject of test [3] is L1210. As to the kind of experiment: Percent inhibition of growth of murine leukemia L1210 cell culture at 1 mM was determined. The format is functional. Particulars: Mus musculus.

The source made the active and inactive calls. The calls are words filed in the database; no cut-off is given here.

For the compound `Nc1ccn([C@@H]2O[C@H](CO)[C@@H](O)[C@@H]2O)c(=O)n1`, the outcome in the test on L1210 [1] was inactive.

Regarding `Nc1nc(O)c2ncn([C@@H]3C=C(CO)[C@@H](O)[C@H]3O)c2n1`, the result (in test [2]; in the test with Human alphaherpesvirus 1; with Human alphaherpesvirus 2) was inactive. At 1000 µM the inhibition in the test on L1210 [3] was 50%.

Take `Nc1ncnc2c1ncn2[C@@H]1C=C(CO)[C@@H](O)[C@H]1O` [NEOPLANOCIN A]: the result (in test [2]; in the test on Human alphaherpesvirus 1; with Human alphaherpesvirus 2) was inactive. The same compound registered an inhibition at 1000 µM in the test on L1210 [3] of 50%.
